In patent US6743804B2, “Quinoline derivatives as NK3 antagonists” (SmithKline Beecham S p.A., priority 1996, dated 2004):
Counter-ions that a name gives are not always drawn.

Columns and labels:
guinea-pig NK3 receptors = biological target: T1, guinea-pig NK3 receptors (Cavia porcellus, UniProt P30098); assay: Radioligand binding to guinea-pig NK3 receptors (guinea-pig cortex membranes, displacement of [3H]-Senktide or [125I]-[Me-Phe7]-NKB)
T1 sequence (P30098 1-440): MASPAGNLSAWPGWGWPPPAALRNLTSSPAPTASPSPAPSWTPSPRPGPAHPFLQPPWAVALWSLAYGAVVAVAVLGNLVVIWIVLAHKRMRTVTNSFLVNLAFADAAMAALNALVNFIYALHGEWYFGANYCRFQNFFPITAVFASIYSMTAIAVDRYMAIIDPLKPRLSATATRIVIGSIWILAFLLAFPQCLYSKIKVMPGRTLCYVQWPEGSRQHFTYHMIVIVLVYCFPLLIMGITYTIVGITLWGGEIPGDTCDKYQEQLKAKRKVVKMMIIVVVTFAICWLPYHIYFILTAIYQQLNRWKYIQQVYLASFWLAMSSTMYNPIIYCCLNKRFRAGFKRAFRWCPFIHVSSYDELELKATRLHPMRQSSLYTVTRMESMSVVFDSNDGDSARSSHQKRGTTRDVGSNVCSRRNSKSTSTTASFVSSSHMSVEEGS
Method: The activity of the compounds of the present invention, as NK3 ligands, is determined by their ability to inhibit the binding of the radiolabelled NK3 ligands, [^125I]-[Me-Phe^7]-NKB or [^3H]-Senktide, to guinea-pig and human NK3 receptors (Renzertti et al, 1991, Neuropeptide, 18, 104-114; Buell et al, 1992, FEBS, 299(1), 90-95; Chung et al, 1994, Biochem. Biophys. Res. Commun., 198(3), 967-972). The binding assays utilized allow the determination of the concentration of the individual compound required to reduce by 50% the [^125I]-[Me-Phe^7]-NKB and [^3H]-Senktide specific binding to NK3 receptor in equilibrium conditions (IC50). Binding assays provide for each compound tested a mean IC50 value of 2-5 separate experiments performed in duplicate or triplicate. […] The NK3-antagonist activity of the compounds of the present invention is determined by their ability to inhibit senktide-induced contraction of the guinea-pig ileum (Maggi et al, 1990, Br. J. Pharmacol., 101, 996-1000) and rabbit isolated iris sphincter muscle (Hall et al., 1991, Eur. J. Pharmacol., 199, 9-14) and human NK3 receptors-mediated Ca^++ mobilization (Mochizuki et al, 1994, J. Biol. Chem., 269, 9651-9658). Guinea-pig and rabbit in-vitro functional assays provide for each compound tested a mean KB value of 3-8 separate experiments, where KB is the concentration of the individual compound required to produce a 2-fold rightward shift in the concentration-response curve of senktide. Human receptor functional assay allows the determination of the concentration of the individual compound required to reduce by 50% (IC50 values) the Ca^++ mobilization induced by the agonist NKB.

SMILES | melting point | Ki (guinea-pig NK3 receptors)
COC(=O)C(NC(=O)c1cc(-c2ccccc2)nc2ccc(C)cc12)c1ccccc1 (centres unmarked) [Example 33] | 179 to 181 °C | 
COCC(NC(=O)c1cc(-c2ccccc2)nc2ccccc12)c1ccccc1 (centres unmarked) [Example 34] | 144 to 145 °C | 
CC[C@H](NC(=O)c1c(C)c(-c2ccc(Br)cc2)nc2ccc(Br)cc12)c1ccccc1 [Example 41] | 230 to 231 °C | 
CCc1c(-c2ccccc2)nc2ccccc2c1C(=O)NC(C(=O)OC)c1ccccc1 (centres unmarked) [Example 36] | 156 to 157 °C | 
CCC(NC(=O)c1cc(-c2ccccc2)nc2ccccc12)c1ccc(Cl)cc1 (centres unmarked) [Example 49] | 177 to 178 °C | 
CCc1c(-c2ccccc2)nc2ccccc2c1C(=O)N[C@@H](CC)c1ccccc1 [Example 48] | 118 to 120 °C | 12 nM
COC(=O)C(NC(=O)c1cc(-c2ccccc2)nc2cc(Cl)ccc12)c1ccccc1 (centres unmarked) [Example 32] | 180 to 183 °C | 
O=C(NC1(c2ccccc2)CCCC1)c1cc(-c2ccccc2)nc2ccccc12 [Example 61] | 164 to 165 °C | 
CC[C@H](NC(=O)c1c(C)c(-c2ccccc2)nc2ccccc12)c1ccccc1 [Example 22] |  | 5.6 nM
COC(=O)C(NC(=O)c1cc(-c2ccccc2OC)nc2ccccc12)c1ccccc1 (centres unmarked) [Example 24] | 124 to 125 °C | 
COC(=O)C(NC(=O)c1c2c(nc3ccccc13)-c1ccccc1CC2)c1ccccc1 (centres unmarked) [Example 52] | 217 to 219 °C | 
O=C(NC(Cc1ccccc1)c1ccccc1)c1cc(-c2ccccc2)nc2ccccc12 (centres unmarked) [Example 45] | 194 to 196 °C | 
COC(=O)C(NC(=O)c1cc(-c2ccccc2)nc2ccc(Cl)cc12)c1ccccc1 (centres unmarked) [Example 35] | 197 to 199 °C | 
COC(=O)C(NC(=O)c1cc(-c2nccs2)nc2ccccc12)c1ccccc1 (centres unmarked) [Example 54] | 209 to 211 °C | 
O=C(NC(CO)c1ccccc1)c1cc(-c2ccccc2)nc2ccccc12 (centres unmarked) [Example 28] | 117 to 119 °C | 
CCCC(NC(=O)c1cc(-c2ccccc2)nc2ccccc12)c1ccccc1 (centres unmarked) [Example 37] | 149 to 150 °C | 
CCCCc1c(-c2ccccc2)nc2ccccc2c1C(=O)NC(CC)c1ccccc1 (centres unmarked) [Example 19] | 147 to 150 °C | 
CCC(NC(=O)c1c(-c2ccccc2)c(-c2ccccc2)nc2ccccc12)c1ccccc1 (centres unmarked) [Example 25] | 198 to 200 °C | 
COC(=O)C(NC(=O)c1cc(-c2ccsc2)nc2ccccc12)c1ccccc1 (centres unmarked) [Example 51] | 169 to 171 °C | 
COC(=O)C(NC(=O)c1cc(-c2ccc(O)cc2)nc2ccccc12)c1ccccc1 (centres unmarked) [Example 62] | 226 to 227 °C | 

SMILES | melting point | Ki (guinea-pig NK3 receptors)
CCC(NC(=O)c1cc(-c2ccccc2)nc2ccccc12)c1ccc(C)cc1 (centres unmarked) [Example 65] | 160 to 162 °C | 
COC(=O)C(NC(=O)c1cc(-c2ccc(OC)cc2)nc2ccccc12)c1ccccc1 (centres unmarked) [Example 60] | 182 to 183 °C | 
CC[C@H](NC(=O)c1c(Cl)c(-c2ccccc2)nc2ccccc12)c1ccccc1 [Example 70] | 137 to 139 °C | 
CC(C)C(NC(=O)c1cc(-c2ccccc2)nc2ccccc12)c1ccccc1 (centres unmarked) [Example 72] | 165 to 166 °C | 
COC(=O)C(NC(=O)c1cc(-c2cc[nH]c2)nc2ccccc12)c1ccccc1 (centres unmarked) [Example 66] | 202 to 204 °C | 
CCCCC(NC(=O)c1cc(-c2ccccc2)nc2ccccc12)c1ccccc1 (centres unmarked) [Example 56] | 155 to 156 °C | 
COC(=O)C(NC(=O)c1cc(C2CCCCC2)nc2ccccc12)c1ccccc1 (centres unmarked) [Example 76] | 151 to 153 °C | 
COC(=O)C(NC(=O)c1c2c(nc3ccccc13)-c1ccccc1CCC2)c1ccccc1 (centres unmarked) [Example 20] | 186 to 188 °C | 
CCCc1c(-c2ccccc2)nc2ccccc2c1C(=O)NC(CC)c1ccccc1 (centres unmarked) [Example 40] | 149 to 151 °C | 
COC(=O)C(NC(=O)c1cc(-c2ccccc2)nc2ccc(F)cc12)c1ccccc1 (centres unmarked) [Example 75] | 174 to 176 °C | 
COC(=O)C(NC(=O)c1cc(-c2ccccc2C)nc2ccccc12)c1ccccc1 (centres unmarked) [Example 59] | 180 to 182 °C | 
NC[C@H](NC(=O)c1cc(-c2ccccc2)nc2ccccc12)c1ccccc1 [Example 68] | 139 to 141 °C | 
COC(=O)C(NC(=O)c1cc(-c2cccc(Cl)c2)nc2ccccc12)c1ccccc1 (centres unmarked) [Example 77] | 161 to 163 °C | 
CCC(NC(=O)c1cc(-c2ccccc2)nc2ccccc12)c1ccc(Cl)c(Cl)c1 (centres unmarked) [Example 27] | 193 to 194 °C | 
COC(=O)C(NC(=O)c1c(C)c(-c2ccccc2)nc2ccccc12)c1ccccc1 (centres unmarked) [Example 30] | 180 to 181 °C | 
CCC(NC(=O)c1c(N2C(=O)c3ccccc3C2=O)c(-c2ccccc2)nc2ccccc12)c1ccccc1 (centres unmarked) [Example 39] | 201 to 202 °C | 
COC(=O)C(NC(=O)c1cc(-c2ccc(Cl)c(Cl)c2)nc2ccccc12)c1ccccc1 (centres unmarked) [Example 67] | 164 to 165 °C | 
COC(=O)C(NC(=O)c1cc(-c2ccccc2)nc2ccc(OC)cc12)c1ccccc1 (centres unmarked) [Example 43] | 209 to 211 °C | 
COC(=O)C(NC(=O)c1cc(-c2ccccc2)nc2c(O)cccc12)c1ccccc1 (centres unmarked) [Example 81] | 178 to 180 °C | 
C[C@H](O)[C@H](NC(=O)c1cc(-c2ccccc2)nc2ccccc12)c1ccccc1 [Example 17, (R,S)-N-[α-(1-hydroxyethyl)benzyl]-2-phenylquinoline-4-carboxamide] | 204 to 205 °C | 

SMILES | melting point | Ki (guinea-pig NK3 receptors)
COC(=O)C(NC(=O)c1cc(-c2cc3ccccc3o2)nc2ccccc12)c1ccccc1 (centres unmarked) [Example 44] | 240 to 241 °C | 
CC[C@H](NC(=O)c1c(OC)c(-c2ccccc2)nc2ccccc12)c1ccccc1 [Example 47] | 132 to 134 °C | 8.8 nM
COC(=O)[C@H](NC(=O)c1c(O)c(-c2ccccc2)nc2ccccc12)c1ccccc1 [Example 87] | 125 to 127 °C | 
COC(=O)C(NC(=O)c1cc(-c2ccccc2F)nc2ccccc12)c1ccccc1 (centres unmarked) [Example 26] | 146 to 147 °C | 
COC(=O)C(NC(=O)c1cc(-c2ccccc2Cl)nc2ccccc12)c1ccccc1 (centres unmarked) [Example 78] | 175 to 178 °C | 
CC(C)(NC(=O)c1cc(-c2ccccc2)nc2ccccc12)c1ccccc1 [Example 64] | 173 to 174 °C | 
COC(=O)C(NC(=O)c1cc(-c2ccc3c(c2)OCO3)nc2ccccc12)c1ccccc1 (centres unmarked) [Example 63] | 186 to 187 °C | 
CC[C@H](NC(=O)c1c(C)c(-c2ccccc2)nc2ccc(Br)cc12)c1ccccc1 [Example 42] | 179 to 180 °C | 
COC(=O)C(NC(=O)c1cc(-c2ccc(Cl)cc2Cl)nc2ccccc12)c1ccccc1 (centres unmarked) [Example 82] | 142 to 143 °C | 
CCC(NC(=O)c1c(OC)c(-c2ccccc2)nc2ccccc12)c1ccccc1 (centres unmarked) [Example 18] | 164 to 165 °C | 
COC(=O)C(c1ccccc1)N(C)C(=O)c1cc(-c2ccccc2)nc2ccccc12 (centres unmarked) [Example 50] | 128 to 129 °C | 
O=C(NC(c1ccccc1)C(F)(F)F)c1cc(-c2ccccc2)nc2ccccc12 (centres unmarked) [Example 46] | 180 to 181 °C | 
COC(=O)C(NC(=O)c1cc(-c2ccc(C)cc2)nc2ccccc12)c1ccccc1 (centres unmarked) [Example 57] | 172 to 174 °C | 
COC(=O)[C@H](NC(=O)c1cc(-c2ccccc2)nc2ccccc12)c1ccc(O)cc1 (as salt: HCl) [Example 83, (R)-N-[α-(methoxycarbonyl)-4-hydroxybenzyl]-2-phenylquinoline-4-carboxamide] | 140 °C (dec.) | 
CCc1c(-c2ccccc2)nc2ccccc2c1C(=O)NC(CC)c1ccccc1 (centres unmarked) [Example 38] | 158 to 159 °C | 
COC(=O)[C@H](NC(=O)c1cc(-c2ccccc2)nc2ccccc12)C1=CCC=CC1 [Example 16] | 120 to 122 °C | 
CC[C@H](NC(=O)c1c(Br)c(-c2ccccc2)nc2ccccc12)c1ccccc1 [Example 71] | 119 to 122 °C | 
COC(=O)C(NC(=O)c1cc(-c2ccccc2)nc2c(OC(C)=O)cccc12)c1ccccc1 (centres unmarked) [Example 80] | 193 to 194 °C | 
COC(=O)C(NC(=O)c1cc(-c2ccc[nH]2)nc2ccccc12)c1ccccc1 (centres unmarked) [Example 53] | 181 to 182 °C | 
O=C(NC(c1ccccc1)c1ccccc1)c1cc(-c2ccccc2)nc2ccccc12 [Example 84] | 182 to 184 °C | 
